# From ChEMBL document CHEMBL1201862, “PubChem BioAssay data set” (2004)
#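 Test compounds were applied to cells in 96-well plates for 48 hours at 5 doses. The concentration for 50% growth inhibition is given as GI50.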 Calls of active or inactive are those of the source. No stated cut-off is given here; in the data, active = GI50 up to about 1.1 µM and inactive = higher.
# How the values were obtained:
# Assay in all cases: NCI tumour cell line growth inhibition, 48 h
# A549 = system: A549
# ACHN = system: ACHN
# COLO 205 = system: COLO 205
# DU-145 = system: DU-145
# HOP-92 = system: HOP-92
# Hs-578T = system: Hs-578T
# M14 = system: M14
# NCI-H226 = system: NCI-H226
# NCI-H460 = system: NCI-H460
# OVCAR-4 = system: OVCAR-4
# PC-3 = system: PC-3
# SF-539 = system: SF-539
# SK-MEL-5 = system: SK-MEL-5
# SNB-19 = system: SNB-19
# SNB-75 = system: SNB-75
# T47D = system: T47D
# UACC-257 = system: UACC-257
# UO-31 = system: UO-31
Structure (SMILES),GI50 (A549),GI50 (ACHN),GI50 (COLO 205),GI50 (DU-145),GI50 (HOP-92),GI50 (Hs-578T),GI50 (M14),GI50 (NCI-H226),GI50 (NCI-H460),GI50 (OVCAR-4),GI50 (PC-3),GI50 (SF-539),GI50 (SK-MEL-5),GI50 (SNB-19),GI50 (SNB-75),GI50 (T47D),GI50 (UACC-257),GI50 (UO-31)
COc1ccc2c(C)cc(N/N=C/c3ccc(C)s3)nc2c1,7.91 µM (inactive),18 µM (inactive),2.81 µM (inactive),6.49 µM (inactive),19.5 µM (inactive),31.6 µM (inactive),6.55 µM (inactive),13 µM (inactive),5.27 µM (inactive),11.1 µM (inactive),14.1 µM (inactive),13.6 µM (inactive),3.43 µM (inactive),25.4 µM (inactive),20.9 µM (inactive),6.53 µM (inactive),11 µM (inactive),13.6 µM (inactive)
Cc1cnc2[nH]c(-c3ccccc3)cc(=O)c2c1,0.0585 µM (active),0.0608 µM (active),0.0193 µM (active),0.0395 µM (active),0.065 µM (active),0.0171 µM (active),0.0213 µM (active),0.122 µM (active),0.0259 µM (active),1.35 µM (inactive),0.0161 µM (active),0.0246 µM (active),< 0.01 µM (active),0.0904 µM (active),0.0122 µM (active),> 100 µM (inactive),< 0.0218 µM (active),0.0528 µM (active)
CCOC(=O)NC(C(=O)OCC)(N1CCN(c2cc3c(cc2F)c(=O)c(C(=O)O)cn3CC)CC1)C(F)(F)F (stereo not drawn),> 100 µM (inactive),> 100 µM (inactive),> 100 µM (inactive),> 100 µM (inactive),> 100 µM (inactive),> 100 µM (inactive),> 100 µM (inactive),> 100 µM (inactive),> 100 µM (inactive),> 100 µM (inactive),> 100 µM (inactive),> 100 µM (inactive),> 100 µM (inactive),> 100 µM (inactive),> 100 µM (inactive),> 100 µM (inactive),> 100 µM (inactive),> 100 µM (inactive)
C=CCN1C[C@H](C)N([C@@H](c2ccc(C(=O)N3CCCCC3)cc2)c2cccc(OC)c2)C[C@H]1C,30.5 µM (inactive),32.3 µM (inactive),16.6 µM (inactive),80.5 µM (inactive),98.6 µM (inactive),86.7 µM (inactive),17.4 µM (inactive),45.4 µM (inactive),31 µM (inactive),56.4 µM (inactive),21.9 µM (inactive),27 µM (inactive),19.1 µM (inactive),50.5 µM (inactive),40 µM (inactive),24.5 µM (inactive),21.2 µM (inactive),24.4 µM (inactive)
COc1cc(/C=C/c2sc3ccccc3[n+]2C)ccc1N(C)C,5.98 µM (inactive),11.1 µM (inactive),1.29 µM (inactive),13.6 µM (inactive),1.85 µM (inactive),41.3 µM (inactive),13.4 µM (inactive),22.4 µM (inactive),6.11 µM (inactive),1.33 µM (inactive),3.24 µM (inactive),17.3 µM (inactive),4.14 µM (inactive),12.9 µM (inactive),> 10 µM (inactive),3.21 µM (inactive),2.96 µM (inactive),< 0.01 µM (active)
c1ccc(CCCCNCc2cc(CNCCCCc3ccccc3)cc(CNCCCCc3ccccc3)c2)cc1,0.263 µM (active),1.63 µM (inactive),0.366 µM (active),0.762 µM (active),1.45 µM (inactive),1.5 µM (inactive),0.556 µM (active),2.6 µM (inactive),0.364 µM (active),1.85 µM (inactive),1.41 µM (inactive),0.8 µM (active),1.81 µM (inactive),0.714 µM (active),1.66 µM (inactive),1.79 µM (inactive),0.859 µM (active),0.261 µM (active)
C=CN1CCN(c2ccccc2)P1(=O)Oc1ccccc1 (stereo not drawn),> 100 µM (inactive),48.8 µM (inactive),> 100 µM (inactive),> 100 µM (inactive),50.9 µM (inactive),33.7 µM (inactive),40.2 µM (inactive),65.2 µM (inactive),> 100 µM (inactive),> 100 µM (inactive),31.3 µM (inactive),> 100 µM (inactive),87.7 µM (inactive),> 100 µM (inactive),16.4 µM (inactive),63.7 µM (inactive),> 100 µM (inactive),20 µM (inactive)
COc1cc(-c2cc(=O)c3cc4c(cc3[nH]2)OCO4)cc(OC)c1O,> 10 µM (inactive),> 10 µM (inactive),> 10 µM (inactive),> 10 µM (inactive),> 10 µM (inactive),> 10 µM (inactive),> 10 µM (inactive),> 10 µM (inactive),> 10 µM (inactive),> 10 µM (inactive),> 10 µM (inactive),> 10 µM (inactive),> 10 µM (inactive),> 10 µM (inactive),> 10 µM (inactive),> 10 µM (inactive),> 10 µM (inactive),> 10 µM (inactive)
CCOC(=O)c1cn2c(n1)sc1c(Cl)c(Cl)ccc12,15.1 µM (inactive),15.3 µM (inactive),6.1 µM (inactive),18.1 µM (inactive),24.5 µM (inactive),5.33 µM (inactive),9.38 µM (inactive),14.8 µM (inactive),> 60.1 µM (inactive),46.6 µM (inactive),18.3 µM (inactive),6.76 µM (inactive),6.7 µM (inactive),25.3 µM (inactive),15 µM (inactive),0.91 µM (active),28.2 µM (inactive),13.4 µM (inactive)
Nc1ccccc1N/C=C\C(=O)C(Cl)(Cl)Cl,67.3 µM (inactive),16.3 µM (inactive),22.8 µM (inactive),26.7 µM (inactive),19 µM (inactive),48.8 µM (inactive),14.7 µM (inactive),82.6 µM (inactive),31.3 µM (inactive),19.5 µM (inactive),35.3 µM (inactive),28.4 µM (inactive),44 µM (inactive),34.1 µM (inactive),22.6 µM (inactive),18.6 µM (inactive),21.9 µM (inactive),19.2 µM (inactive)
Cl/C(=C\C=N\c1ccc(I)cc1)c1ccc2ccccc2c1,33.3 µM (inactive),10.5 µM (inactive),16.3 µM (inactive),21.4 µM (inactive),41.6 µM (inactive),28.4 µM (inactive),14.3 µM (inactive),20.8 µM (inactive),24.2 µM (inactive),24.5 µM (inactive),25.3 µM (inactive),19.9 µM (inactive),18 µM (inactive),18.3 µM (inactive),28.4 µM (inactive),10.4 µM (inactive),15.4 µM (inactive),17.5 µM (inactive)
